Data taken from PMC7463999, “Antioxidant, Anti-inflammatory and Neuroprotective Profiles of Novel 1,4-Dihydropyridine Derivatives for the Treatment of Alzheimer’s Disease” (Antioxidants, 2020).
Where “and” joins values, the source holds several entries; their conditions need not be identical. Equal values may be shown once. Read-outs that look alike come from different tables or passages of the source.

Columns and labels:
[1] = tested on: voltage-dependent Ca^2+ channels (VDCC); test: Voltage dependent calcium channels blockade assay (Fluo-4, 70 mM K+); type: cell-based, human; details: compounds at 10 μM, SH-SY5Y, basal = 100% response
Description: Free cytosolic Ca^2+ was measured using the fluorescence Ca^2+ indicator Fluo-4/AM. SH-SY5Y cells were seeded in 96-well black bottom transparent plates at a density of 60,000 cells per well and cultured until they reach confluence. Cells were incubated with the Ca^2+ sensitive dye Fluo-4/AM at 5 µM in Krebs-HEPES buffer (KH) (145 mM NaCl, 4.9 mM KCl, 1.2 mM MgCl2, 2 mM CaCl2, 10 mM HEPES, 11 mM glucose, pH 7.4), and 0.05% pluronic acid, for 1 h at 37 °C in the dark. Then, cells were washed twice with KH solution to remove the excess of probe and compounds in solution were added. Test compounds at 10 µM were incubated 10 min before K^+ 70 mM was applied to trigger cytosolic Ca^2+ increase. Fluorescence was measured in a fluorescence microplate reader (FLUOstar Optima, BMG, Ortenberg, Baden-Wuerttemberg, Germany) at excitation and emission wavelengths 485 and 520 nm, respectively. To normalize Fluo-4 signals, Triton X-100 (5%) and subsequently MnCl2 1 M were applied to the cells to register maximal and minimal fluorescence, respectively. Data were calculated as a percentage of Fluorescence increment with respect to Fmax − Fmin. The percentage of response was calculated considering basal conditions as 100% response.
Voltage dependent Calcium Channel Blockade Assay
Free cytosolic Ca2+ was measured using the fluorescence Ca2+ indicator Fluo-4/AM.
SH-SY5Y cells were seeded in 96-well black bottom transparent plates at a density of 60,000 cells per well until reaching confluence. Cells were incubated with the Ca2+ sensitive dye fluo-4 AM at 5 µM in Krebs-Hepes buffer (KH) (145 mM NaCl, 4.9 mM KCl, 1.2 mM MgCl2, 2 mM CaCl2, 10 mM HEPES, 11 mM glucose, pH 7.4), and 0.05 % pluronic acid, for 1 h at 37 °C in the dark. Then, cells were washed twice with KH solution to remove the excess of probe and compounds in solution were added. Tested compounds at 10 µM were incubated 10 min before K+ 70 mM was applied to evoke the increment of cytosolic Ca2+. The experiments were analyzed at excitation and emission wavelengths of 485 and 520 nm, respectively, and fluorescence was measured in a fluorescence microplate reader (FLUOstar Optima, BMG, Germany). To normalize Fluo-4 signals, Triton X-100 (5 %) and subsequently MnCl2 1 M were applied to cells for registering both maximal and minimal fluorescence, respectively. Data were calculated as % F increment respect to Fmax – Fmin. % of blockade was calculated considering basal conditions as 100 % response.
Then, the donor filter plate was carefully put on the acceptor plate to form a “sandwich”, which was left undisturbed for 4 h at 25 °C. During this time, the compounds diffused from the donor plate through the polar brain lipid membrane (area = 0.28 cm2) into the acceptor plate. After incubation, the donor plate was carefully removed. UV plate reader determined the concentration of compounds and commercial drugs in both acceptor and […]

[2] = DPPH reduction assay; details: DPPH 100 µM, 1 h in the dark
Description: The final solution was incubated during 1 h in the dark. […] Results are expressed as a percentage of DPPH reduction by subtracting blank absorbance (Absblank) to sample absorbance (Abssample) and corrected by control absorbance, (Abscontrol, DPPH alone, as expressed below: % DPPH reduction = [100 − ((Abssample − Absblank) × 100/Abscontrol)](1)
Briefly, the compounds under assay (150 µL) at the desired concentration (1, 10, 60 and 100 µM) in methanol/water (80/20) were added to a solution of DPPH in methanol/water (80/20) (150 µL, 100 µM), in a clear bottom 96-well plate, and the final solution was incubated 1 h in the dark. Then, DPPH absorbance of blank (methanol/water), control
Optima plate-reader (BMG Labtech, Ortenberg, Germany) in duplicate.
Results are expressed as % of absorbance (Abs) reduction of control after subtracting blank absorbance, as expressed
% DPPH reduction = [100 – (Abssample-Absblank) x 100]/Abscontrol

[3] = target: GSK-3β (Homo sapiens, UniProt P49841); test: GSK-3β inhibition, Kinase-Glo luminescence assay
[4] = tested on: SH-SY5Y human neuroblastoma cells; test: Neuroprotection against rotenone/oligomycin A (oxidative stress), MTT; details: 1 μM, rotenone 30 μM / oligomycin A 10 μM, 24 h; for percentage of survival, R/O toxicity: basal = 100%
Description: (§1) Cells were pre-incubated with the corresponding compound at 1 μM in neuroblastoma culture medium. After 24 h, the medium was removed and replaced with 1% FBS neuroblastoma culture media containing the corresponding compound at 1 µM and the toxic stimuli, namely a mixture of rotenone and oligomycin A (R/O, 30 μM/10 μM, respectively), okadaic acid (OA) at 20 nM or a high concentration of KCl (70 mM). Cells were co-incubated for further 24 h with the R/O mixture or KCl solution, or 18 h with the OA solution. […] Control cells were incubated with the same amount of dimethyl sulfoxide (DMSO) without any drug. After the co-incubation period, cell viability was assessed by the 3-(4,5-dimethylthiazol-2-yl)-2,5-diphenyltetrazolium bromide (MTT) reduction method [56]; basal condition was considered as 100% survival.
(§2) Neuroprotection in the SH-SY5Y neuroblastoma cell line
(§3) A pre- and co-incubation protocol was followed. Cells were pre-incubated with the
(§4) corresponding compound at 1 M in neuroblastoma culture medium. After 24 h, the
(§5) medium was removed and replaced with 1% FBS neuroblastoma culture media
(§6) containing the corresponding compound at 1 µM and the toxic stimuli, namely a mixture
(§7) of rotenone and oligomycin A (30 M/10 M respectively), okadaic acid at 20 nM or a
(§8) high concentration of potassium chloride (70 mM). Cells were co-incubated for further
(§9) 24 h with the rotenone and oligomycin A or potassium chloride solution, or 18 h with the
(§10) okadaic acid solution. Control cells were incubated with the same amount of DMSO
(§11) and reference compounds in the rotenone-oligomycin A, okadaic acid or high
(§12) concentration of potassium models respectively. After the co-incubation period, cell
(§13) viability was assessed by the MTT-reduction method [11] considering basal conditions
Viability assay by MTT-reduction
(§14) SH-SY5Y, primary glial culture cells and rat hippocampal slices viability was
(§15) measured by the MTT assay [11]. This method is based on the cleavage of the tetrazolium
(§16) ring of MTT by active dehydrogenases, generating a formazan precipitate. At the end of
(§17) the neuroprotection or toxicity experiments, an MTT solution was added to each well to
(§18) reach a final concentration of 0.5 mg/mL. After 2 additional hours of incubation, the
(§19) solution was replaced by 100 or 300 µL of DMSO to solubilize the formazan precipitate.
(§20) in control cells was considered as 100 % of cell survival and used to reference all
(§21) treatments. The percentage of protection was calculated as follows: the percentage of cell
(§22) survival obtained with the toxic stimuli-treated cells subtracted to 100 was normalized to
(§23) 100 % of cell death. The percentage of protection was obtained by subtracting the
(§24) percentage of cell death in presence of the tested compound to 100 %.

[5] = Blood-brain barrier permeation assay (PAMPA), porcine brain lipid; type: in vitro ADME; details: for PAMPA Prediction: BBB permeability class from Pe
[6] = tested on: blood-brain barrier (passive diffusion); test: as above; type: in vitro ADME; details: PAMPA; 100 µM, PBS pH 7.4, 4 h at 25 °C, mean ± SEM; read-out: PAMPA Pe
[7] = tested on: neuroblastoma cell line SH-SY5Y; test: Cytotoxicity (neurotoxicity) in SH-SY5Y, MTT; details: 24 h
Description: (§25) LD50 in SH-SY5Y and primary glial culture cells
(§26) cell line SH-SY5Y and primary glial cultures. Viability was measured as
(§27) MTT reduction in presence of increasing concentrations of derivatives.
(§28) Values are expressed as LD50 calculated from dose-response curves of four
(§29) different concentrations. Data are expressed as mean  SEM of five
different experiments in triplicate.
(§30) SH-SY5Y or primary glial cells were cultured in 96-well plates for 24 h. Then, cells
(§31) were treated with the compounds at 10, 30 and 100 µM in the corresponding culture media
(§32) with 1 % FBS After 24 h, cell viability was assessed by the MTT-reduction assay. Control
(§33) cells were incubated with the same concentration of DMSO (0.1 % final concentration)
Viability assay by MTT-reduction
as §14, §15, §16, §17, §18, §19, §20

[8] = Oxygen Radical Absorbance Capacity (ORAC) assay; details: Trolox equivalents, ORAC of Trolox = 1.0; AAPH, fluorescein
[9] = tested on: SH-SY5Y human neuroblastoma cells; test: Neuroprotection against okadaic acid (tau hyperphosphorylation), MTT; details: 18 h; for viability at 1 µM: Homo sapiens, SH-SY5Y, read-out: cell viability (percentage survival), okadaic acid toxicity; for percentage of protection, okadaic acid toxicity: 1 μM, OA 20 nM
Description: as §1, §2, §3, §4, §5, §6, §7, §8, §9, §10, §11, §12, §13
Viability assay by MTT-reduction
as §14, §15, §16, §17, §18, §19, §20, §21, §22, §23, §24

[10] = tested on: primary glial cultures; test: Cytotoxicity (gliotoxicity) in primary glial cultures, MTT; details: 24 h
Description: as §26, §27, §28, §29
different experiments in triplicate.
(§34) Mixed glial cultures were obtained from cerebral cortex of 2-5-day-old Sprague-Dawley rats. After removal of blood vessels and meninges, the forebrains were dissociated in DMEM/F12 medium. After mechanical dissociation, cells were plated (3x10^5 cells/ml) in DMEM/F12 medium with 20 % fetal bovine serum (FBS) and 1 % penicillin/streptomycin (10,000 units), at 37 °C and in a 5 % CO2-supplemented air atmosphere. After 5 days, medium was substituted by DMEM/F12 medium with 10 %
(§35) FBS. Cells were cultured for 7-10 days before treatment.
as §30, §31, §32, §33
Viability assay by MTT-reduction
as §14
measured by the MTT assay [11].

[11] = tested on: primary glial cultures stimulated with LPS; test: Nitrite production reduction (Griess) in LPS-stimulated mixed primary glial cultures; type: cell-based, rat; details: Rattus norvegicus; LPS 1 μg/mL, 24 h pre-incubation, 18 h co-incubation
[12] = tested on: primary glial cultures; details: Sprague-Dawley, rat, 24 h
Description: as §26, §27, §28, §29
different experiments in triplicate.
as §34, §35, §30, §31, §32, §33
Viability assay by MTT-reduction
as §14
measured by the MTT assay [11].

[13] = tested on: neuroblastoma cell line SH-SY5Y; details: human, 24 h
Description: as §25, §26, §27, §28, §29
different experiments in triplicate.
as §30, §31, §32, §33
Viability assay by MTT-reduction
as §14, §15, §16, §17, §18, §19, §20

GSK-3β, sequence (P49841 whole entry): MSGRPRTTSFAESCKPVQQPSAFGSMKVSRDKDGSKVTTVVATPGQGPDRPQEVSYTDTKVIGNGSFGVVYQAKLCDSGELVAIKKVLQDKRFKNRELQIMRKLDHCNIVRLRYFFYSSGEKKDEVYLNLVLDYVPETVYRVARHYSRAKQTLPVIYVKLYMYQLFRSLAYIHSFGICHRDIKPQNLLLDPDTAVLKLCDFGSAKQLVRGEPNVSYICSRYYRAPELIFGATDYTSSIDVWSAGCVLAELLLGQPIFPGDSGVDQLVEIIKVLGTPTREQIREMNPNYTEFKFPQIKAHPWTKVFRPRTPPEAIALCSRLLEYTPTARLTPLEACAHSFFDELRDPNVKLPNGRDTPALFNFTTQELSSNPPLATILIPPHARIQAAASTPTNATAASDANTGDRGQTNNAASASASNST

| Compound | VDCC % Response [1] | IC50 [2] [µM] | IC50 [3] [µM] | Ki [3] [µM] | percentage of survival, R/O toxicity [4] [%] | PAMPA Prediction [5] | Papp at 4 h, 100 µM [6] [×10⁻⁶ cm/s] | SH-SY5Y LD50 [7] [µM] | ORAC (T. Eq.) [8] | viability at 1 µM [9] [%] | Glial cultures LD50 [10] [µM] | EC50 [11] [µM] | percentage of protection, okadaic acid toxicity [9] | Prediction of the BBB passive permeability ([5]; PAMPA control compounds) | Glial cultures LD50 [12] [µM] | percentage of protection, R/O toxicity [4] [%] | SH-SY5Y LD50 [13] [µM] |
| --- | --- | --- | --- | --- | --- | --- | --- | --- | --- | --- | --- | --- | --- | --- | --- | --- | --- |
| COCCOC(=O)C1=C(C)NC(C)=C(C(=O)OC(C)C)C1c1cccc([N+](=O)[O-])c1 (stereo not shown) [Nimodipine, reference compound] | 51.0 ± 2.6% |  |  |  |  |  |  |  |  |  |  |  |  |  |  |  |  |
| Cc1[nH]nc2c1C(c1ccc(Cl)cc1)C(C#N)=C(N)N2 (stereo not shown) [4e] | 6.46% and 6.46 ± 1.6% | 20.9 ± 5.91 | 1.94 ± 0.5 | 1.36 | 73.6 | CNS+ | 12.9 ± 3.6 | > 100 | 0.66 T. Eq. and 0.66 ± 0.07 T. Eq. | 64.6 | > 100 | 4.4 ± 0.35 |  |  |  |  |  |
| Cc1[nH]nc2c1C(c1ccccc1Br)C(C#N)=C(N)N2 (stereo not shown) [4f] | 7.39% and 7.39 ± 2.0% | 21.6 ± 3.99 | 0.83 ± 0.3 | 0.58 |  | CNS+ | 10.1 ± 5.4 | > 100 | 1.00 ± 0.16 T. Eq. |  | > 100 | 10.1 ± 0.72 | over 50% |  |  |  |  |
| O=C1O[C@H]([C@@H](O)CO)C(O)=C1O [Ascorbic ac., Ascorbic acid, reference compound] |  | 61.9 ± 4.96 |  |  |  |  |  |  |  |  |  |  |  |  |  |  |  |
| Cc1[nH]nc2c1C(c1cccc([N+](=O)[O-])c1)C(C#N)=C(N)N2 (stereo not shown) [4h] | 75.5 ± 2.7% | 24.7 ± 4.03 | 0.82 ± 0.2 | 0.57 |  | CNS± | 2.1 ± 1 | > 100 | 0.73 T. Eq. and 0.73 ± 0.09 T. Eq. | 60.8 | > 100 | 3.5 ± 0.29 | 34.6% |  |  |  |  |
| Cn1c(=O)c2c(ncn2C)n(C)c1=O [Caffeine, reference compound] |  |  |  |  |  |  |  |  |  |  |  |  |  | CNS (-) |  |  |  |
| Cc1[nH]nc2c1C(c1cccnc1)C(C#N)=C(N)N2 (stereo not shown) [4k] | 85.6% and 85.6 ± 5.3% | 17.1 ± 2.18 | 4.53 ± 2.1 | 3.18 |  | CNS- | 0.7 ± 0.9 | > 100 | 1.03 ± 0.16 T. Eq. |  | > 100 | 22.3 ± 3.42 | over 50% |  |  |  |  |
| COc1ccc2[nH]cc(CCNC(C)=O)c2c1 [Melatonin] |  |  |  |  |  |  |  |  |  |  |  |  |  |  | > 100 | 52.5 | > 100 |
| Cc1[nH]nc2c1C(c1ccc(F)cc1)C(C#N)=C(N)N2 (stereo not shown) [4b] | 48.5 ± 7.6% | 22.8 ± 6.68 | 2.14 ± 1.1 | 1.5 | 84.3 | CNS+ | 4.8 ± 2.6 | > 100 | 1.86 T. Eq. and 1.86 ± 0.08 T. Eq. |  | > 100 | 5.7 ± 0.62 |  |  |  | 62.7 |  |
